Series [1] deals with T1, Cholinesterase (Homo sapiens, UniProt P06276). As to the kind of experiment: Inhibition of human recombinant BuChE using butyrylthiocholine iodide as substrate at 1 uM preincubated for 5 mins followed by substrate addition and measured after 5 mins by DTNB-reagent based Ellman's method relative to control. The conditions noted are these: time 10.0 min. (In general: DTNB colorimetry detects thiols as they appear.)

The target of series [2] is Cholinesterase (Equus caballus, UniProt P81908).
Description: Inhibition of horse serum BuChE using butyrylthiocholine iodide as substrate preincubated for 5 mins followed by substrate addition and measured after 5 mins by DTNB-reagent based Ellman's method
In series [3] the target is Cholinesterase (Equus caballus) (UniProt P81908). As to the kind of experiment: Inhibition of horse serum BuChE using butyrylthiocholine iodide as substrate at 10 uM preincubated for 5 mins followed by substrate addition and measured after 5 mins by DTNB-reagent based Ellman's method relative to control. Format: cell-free. To be noted: time 10.0 min.
Series [4] is described as follows: cells. The conditions noted are these: Mus musculus, HEK293.
Description: Inhibition of mouse GAT3 expressed in HEK293 cells assessed as reduction in [3H]-GABA uptake incubated for 10 mins
Series [5] deals with Sodium- and chloride-dependent GABA transporter 1 (Mus musculus, UniProt P31648). As to the kind of experiment: Inhibition of mouse GAT1 expressed in HEK293 cells assessed as reduction in [3H]-GABA uptake incubated for 10 mins. Type of series: cell-based.
Series [6] in a line: cells. The conditions noted are these: Mus musculus, HEK293. This is another data set of the same source.
Description: Inhibition of mouse GAT2 expressed in HEK293 cells assessed as reduction in [3H]-GABA uptake incubated for 10 mins
For series [7], the target named is T1, Cholinesterase.
Description: Inhibition of human recombinant BuChE using butyrylthiocholine iodide as substrate preincubated for 5 mins followed by substrate addition and measured after 5 mins by DTNB-reagent based Ellman's method
A further series concerns the target T2, GABA transporter 4 (Mus musculus, UniProt P31650).
T2 sequence (P31650 whole entry): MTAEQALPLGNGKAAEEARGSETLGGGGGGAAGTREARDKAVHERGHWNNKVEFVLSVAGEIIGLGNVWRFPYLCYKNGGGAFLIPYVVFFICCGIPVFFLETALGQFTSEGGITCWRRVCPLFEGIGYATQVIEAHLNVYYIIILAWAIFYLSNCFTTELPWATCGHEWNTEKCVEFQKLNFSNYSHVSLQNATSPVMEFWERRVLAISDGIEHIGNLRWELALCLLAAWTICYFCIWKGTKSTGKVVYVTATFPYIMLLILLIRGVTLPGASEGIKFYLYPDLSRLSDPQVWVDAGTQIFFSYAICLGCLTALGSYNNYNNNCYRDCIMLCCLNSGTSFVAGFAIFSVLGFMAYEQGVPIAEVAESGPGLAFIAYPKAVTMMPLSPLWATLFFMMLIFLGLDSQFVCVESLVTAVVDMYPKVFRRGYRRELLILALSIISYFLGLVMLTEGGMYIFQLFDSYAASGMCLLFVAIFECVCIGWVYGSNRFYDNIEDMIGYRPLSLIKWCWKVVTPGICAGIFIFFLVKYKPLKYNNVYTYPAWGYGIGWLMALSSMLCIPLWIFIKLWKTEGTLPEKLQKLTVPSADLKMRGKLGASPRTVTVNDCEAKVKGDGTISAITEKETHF
As to the kind of experiment: Inhibition of mouse GAT4 expressed in HEK293 cells assessed as reduction in [3H]-GABA uptake incubated for 10 mins. Type of series: cell-based.

For a further series, the target named is Cytochrome P450 3A4 (Homo sapiens, UniProt P08684). As to the kind of experiment: Inhibition of CYP3A4 (unknown origin) at 10 uM. Type of series: ADME.
The nature of series [8]: Metabolic stability in human liver microsomes assessed as parent compound remaining incubated for 120 mins in presence of NADPH regeneration system by UPLC/MS analysis. Format: ADME, Microsome. To be noted: read-out: Stability. In general terms: Microsomes from liver hold many membrane-bound enzymes, among them those of drug oxidation.
In another series the target is Cytochrome P450 2D6 (Homo sapiens, UniProt P10635). As to the kind of experiment: Inhibition of CYP2D6 (unknown origin) at 10 uM. Type of series: ADME.
Series [9] can be described thus: Drug metabolism in human liver microsomes assessed as N-dealkylation mediated metabolite formation. Type of series: ADME, Microsome.
A short description of series [10]: Drug metabolism in human liver microsomes assessed as hydroxylation mediated metabolite formation. Format: ADME, Microsome.
The nature of series [11]: Drug metabolism in human liver microsomes assessed as oxidation mediated metabolite formation. Type of series: ADME, Microsome.
Another series in a line: in vitro. To be noted: human, HepG2 cells.
The nature of series [12]: Toxicity in Albino Swiss CD-1 mouse model of scopolamine induced memory deficit assessed as motor deficit at 30 mg/kg, ip pretreated for 30 mins followed by scopolamine administration and measured after 30 mins. Format: organism-based. The conditions noted are these: in vivo, 1 h, time 60 min.
Series [13] can be described thus: Toxicity in Albino Swiss CD-1 mouse model of scopolamine induced memory deficit assessed as sedation at 30 mg/kg, ip pretreated for 30 mins followed by scopolamine administration and measured after 30 mins. Format: organism-based. To be noted: in vivo, 1 h, time 60 min.
In a further series the target is hERG (KCNH2) (Homo sapiens, UniProt Q12809). As to the kind of experiment: Inhibition of human ERG at 10 uM relative to control. Format: toxicity.
In series [14] the target is ATP-dependent translocase ABCB1 (Homo sapiens, UniProt P08183). As to the kind of experiment: Substrate activity at P-gp membranes (unknown origin) at 100 uM incubated for 40 mins by luminescent glo assay relative to control. Type of series: ADME, cell membranes, Membrane.

Chain of Cytochrome P450 2D6 (P10635 whole entry): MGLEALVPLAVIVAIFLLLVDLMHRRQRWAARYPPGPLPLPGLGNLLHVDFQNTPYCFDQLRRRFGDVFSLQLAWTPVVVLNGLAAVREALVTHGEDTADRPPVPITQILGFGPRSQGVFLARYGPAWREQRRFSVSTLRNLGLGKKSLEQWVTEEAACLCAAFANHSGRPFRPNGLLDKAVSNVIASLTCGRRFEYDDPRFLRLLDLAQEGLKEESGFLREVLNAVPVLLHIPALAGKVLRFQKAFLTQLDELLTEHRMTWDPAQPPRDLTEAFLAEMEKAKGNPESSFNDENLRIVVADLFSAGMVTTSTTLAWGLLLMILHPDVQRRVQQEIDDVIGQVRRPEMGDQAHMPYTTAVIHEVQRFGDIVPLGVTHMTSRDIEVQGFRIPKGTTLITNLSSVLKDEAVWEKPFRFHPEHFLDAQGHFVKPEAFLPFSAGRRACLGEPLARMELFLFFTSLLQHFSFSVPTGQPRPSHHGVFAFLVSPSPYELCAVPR
Chain of Cholinesterase (Equus caballus) (P81908 whole entry): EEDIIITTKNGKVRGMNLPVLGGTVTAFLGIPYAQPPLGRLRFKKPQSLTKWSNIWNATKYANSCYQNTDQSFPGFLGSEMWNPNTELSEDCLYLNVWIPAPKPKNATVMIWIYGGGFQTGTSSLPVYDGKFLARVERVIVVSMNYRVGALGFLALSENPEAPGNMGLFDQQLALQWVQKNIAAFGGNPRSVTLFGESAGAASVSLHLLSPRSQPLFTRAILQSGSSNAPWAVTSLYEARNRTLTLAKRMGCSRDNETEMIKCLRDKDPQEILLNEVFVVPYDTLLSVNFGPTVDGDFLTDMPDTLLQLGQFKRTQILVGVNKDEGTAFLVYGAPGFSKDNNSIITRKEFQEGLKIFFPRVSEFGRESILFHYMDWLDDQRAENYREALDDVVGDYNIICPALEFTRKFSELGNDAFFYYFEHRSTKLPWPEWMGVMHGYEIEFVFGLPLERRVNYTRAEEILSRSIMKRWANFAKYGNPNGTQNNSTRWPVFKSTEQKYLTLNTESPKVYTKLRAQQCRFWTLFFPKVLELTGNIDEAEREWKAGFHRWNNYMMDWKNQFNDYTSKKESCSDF
Chain of Cholinesterase (Equus caballus, UniProt P81908) (P81908 whole entry): as above
Chain of Cytochrome P450 3A4 (P08684 whole entry): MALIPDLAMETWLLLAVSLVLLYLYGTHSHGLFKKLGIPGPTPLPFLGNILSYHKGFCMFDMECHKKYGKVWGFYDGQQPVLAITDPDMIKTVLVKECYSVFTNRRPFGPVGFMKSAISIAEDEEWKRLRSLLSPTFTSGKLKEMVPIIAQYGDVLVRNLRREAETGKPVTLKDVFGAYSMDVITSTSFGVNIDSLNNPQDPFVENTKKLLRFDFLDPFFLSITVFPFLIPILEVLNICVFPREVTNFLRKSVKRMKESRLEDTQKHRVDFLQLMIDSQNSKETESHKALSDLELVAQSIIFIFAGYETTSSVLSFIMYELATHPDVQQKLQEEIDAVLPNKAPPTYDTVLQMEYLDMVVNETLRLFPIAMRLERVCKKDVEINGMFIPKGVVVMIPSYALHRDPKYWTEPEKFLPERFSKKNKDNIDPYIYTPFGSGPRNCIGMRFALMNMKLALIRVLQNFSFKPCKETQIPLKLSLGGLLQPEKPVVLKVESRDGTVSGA
T1 sequence (P06276 whole entry): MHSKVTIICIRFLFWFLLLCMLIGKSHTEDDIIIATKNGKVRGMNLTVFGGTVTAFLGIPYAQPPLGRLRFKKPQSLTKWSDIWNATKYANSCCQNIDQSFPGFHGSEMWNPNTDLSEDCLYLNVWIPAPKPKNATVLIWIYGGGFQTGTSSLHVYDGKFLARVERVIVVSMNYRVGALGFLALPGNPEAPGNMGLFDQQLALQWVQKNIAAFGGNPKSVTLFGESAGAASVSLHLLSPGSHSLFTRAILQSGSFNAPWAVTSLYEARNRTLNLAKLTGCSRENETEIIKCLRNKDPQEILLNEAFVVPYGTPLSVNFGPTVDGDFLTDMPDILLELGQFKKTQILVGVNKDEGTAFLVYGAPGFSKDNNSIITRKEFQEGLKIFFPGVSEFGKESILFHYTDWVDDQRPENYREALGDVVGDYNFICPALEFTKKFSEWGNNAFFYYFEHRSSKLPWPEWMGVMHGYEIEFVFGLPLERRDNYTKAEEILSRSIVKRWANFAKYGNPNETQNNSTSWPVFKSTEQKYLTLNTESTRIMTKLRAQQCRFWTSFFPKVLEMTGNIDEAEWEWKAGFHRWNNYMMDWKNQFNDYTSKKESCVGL
Chain of hERG (KCNH2) (Q12809 whole entry): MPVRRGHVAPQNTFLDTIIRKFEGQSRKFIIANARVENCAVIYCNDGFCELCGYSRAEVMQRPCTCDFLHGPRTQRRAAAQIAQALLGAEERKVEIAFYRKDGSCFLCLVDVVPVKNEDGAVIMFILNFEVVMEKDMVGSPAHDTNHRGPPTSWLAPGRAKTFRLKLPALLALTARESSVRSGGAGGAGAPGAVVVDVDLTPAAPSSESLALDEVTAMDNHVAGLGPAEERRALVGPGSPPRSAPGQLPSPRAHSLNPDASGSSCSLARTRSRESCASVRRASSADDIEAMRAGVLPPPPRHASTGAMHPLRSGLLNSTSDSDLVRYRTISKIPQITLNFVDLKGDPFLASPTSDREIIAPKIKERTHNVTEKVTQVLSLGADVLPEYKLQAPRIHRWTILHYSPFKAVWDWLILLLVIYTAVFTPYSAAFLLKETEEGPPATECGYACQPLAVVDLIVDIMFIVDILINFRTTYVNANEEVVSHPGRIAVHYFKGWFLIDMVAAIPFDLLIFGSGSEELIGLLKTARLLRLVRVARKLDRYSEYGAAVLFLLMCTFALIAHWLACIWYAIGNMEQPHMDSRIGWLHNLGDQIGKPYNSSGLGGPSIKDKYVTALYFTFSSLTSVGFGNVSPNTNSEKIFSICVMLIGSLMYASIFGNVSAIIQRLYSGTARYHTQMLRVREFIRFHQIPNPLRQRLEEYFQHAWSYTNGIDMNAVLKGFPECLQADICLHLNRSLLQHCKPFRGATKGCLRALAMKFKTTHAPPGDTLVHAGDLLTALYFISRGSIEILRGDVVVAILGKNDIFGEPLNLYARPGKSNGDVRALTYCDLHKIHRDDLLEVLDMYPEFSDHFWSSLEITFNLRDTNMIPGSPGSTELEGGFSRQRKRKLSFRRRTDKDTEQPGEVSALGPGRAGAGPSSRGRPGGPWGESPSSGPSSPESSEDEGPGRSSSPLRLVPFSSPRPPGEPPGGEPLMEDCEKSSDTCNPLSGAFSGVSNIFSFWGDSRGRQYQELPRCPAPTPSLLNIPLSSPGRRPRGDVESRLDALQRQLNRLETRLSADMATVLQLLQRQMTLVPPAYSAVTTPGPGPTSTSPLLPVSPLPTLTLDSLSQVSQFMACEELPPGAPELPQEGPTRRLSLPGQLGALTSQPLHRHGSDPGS
Description for in vitro: Hepatotoxicity in human HepG2 cells assessed as reduction in cell viability incubated for 72 hrs by MTS assay

In general, inhibition refers to the relative decrease from the control value, in per cent. A word on the IC50: it is the point on the concentration scale where inhibition reaches its midpoint. Take `COc1cccc(CNCC(O)CNC(=O)C(c2ccccc2)c2ccccc2)c1` (racemic): on Cholinesterase [1], the inhibition came to 70%. The compound also registered an IC50 on Cholinesterase [2] of 2.18 µM.
Take `C[C@H](NCC(O)CNC(=O)C(c1ccccc1)c1ccccc1)c1ccccc1` (mixture of isomers): the inhibition at Cholinesterase [1] was < 20%. On Cholinesterase [2], this compound yielded an IC50 of 4.54 µM.
As to `CC(C)(NCC(O)CNC(=O)CC(c1ccccc1)c1ccccc1)c1ccccc1` (racemic), the values for the inhibition (in series [3]; at Cholinesterase [1]) were 44% and < 20%, respectively.
As to `CC(C)(C)c1cccc(CNCC(O)CNC(=O)C(c2ccccc2)c2ccccc2)c1` (racemic), the IC50 is > 10 µM in the series “cells [4]”; > 10 µM in series [5]; > 10 µM in “cells [6]”; 0.1 µM at Cholinesterase [7]; > 10 µM on GABA transporter 4; 0.26 µM against Cholinesterase [2].
As to `CC(C)(C)c1ccc(CNCC(O)CNC(=O)C(c2ccccc2)c2ccccc2)cc1` (racemic), the IC50 against Cholinesterase [7] turned out to be 0.3 µM; at Cholinesterase [2], 1.12 µM.
The like results for `O=C(NCC(O)CNCc1cccc(C(F)(F)F)c1)C(c1ccccc1)c1ccccc1` (racemic) were, in that order, 0.7 µM and 0.96 µM.
Regarding `O=C(NCC(O)CNCC1CCCCC1)C(c1ccccc1)c1ccccc1` (stereo not drawn), the “inhibition (INH)” value on Cytochrome P450 3A4 and against Cytochrome P450 2D6 was “Active” each time. Also, the remaining at 2 h in [8] was > 80%. The Drug metabolism entry in series [9] was “Metabolite_Detected”.
Regarding `O=C(CC(c1ccccc1)c1ccccc1)NCC(O)CNCc1ccccc1` (racemic), the “inhibition (INH)” value on Cytochrome P450 3A4 and against Cytochrome P450 2D6 was “Active” throughout. In addition, the remaining at 2 h in series [8] was 66%. Besides, the IC50 worked out at 0.28 µM on Cholinesterase [7] and 0.61 µM at Cholinesterase [2]. Further, the Drug metabolism result in series [9], in [10] and in series [11] was “Metabolite_Detected” each time.
Broadly, the CC50 is the concentration giving 50% cytotoxicity. Consider `O=C(NC[C@H](O)CNCC1CCCCC1)C(c1ccccc1)c1ccccc1`, for which the “inhibition (INH)” value on Cytochrome P450 3A4 and at Cytochrome P450 2D6 was “Active” each time. The CC50 at 72 h in the series “in vitro” was 18.7 µM.
For `O=C(NC[C@@H](O)CNCC1CCCCC1)C(c1ccccc1)c1ccccc1`, the “inhibition (INH)” value against Cytochrome P450 3A4 and at Cytochrome P450 2D6 was “Active” in each case. Moreover, in the series “in vitro”, the CC50 at 72 h is 25.8 µM.
`O=C(CC(c1ccccc1)c1ccccc1)NC[C@H](O)CNCC1CCCCC1`: the “inhibition (INH)” value against Cytochrome P450 3A4 and on Cytochrome P450 2D6 was “Active” throughout. Besides, the Activity entry in [12] is “Toxic”; in series [13], “Toxic”; in series [14], “<= 190%”. The compound further came in with a CC50 at 72 h in “in vitro” of 2.85 µM. The inhibition at 10 µM on hERG (KCNH2) was < 50%.
Take `O=C(CC(c1ccccc1)c1ccccc1)NC[C@@H](O)CNCC1CCCCC1`: the “inhibition (INH)” value at Cytochrome P450 3A4 and at Cytochrome P450 2D6 was “Active” throughout. Further, the CC50 at 72 h in “in vitro” worked out at 3.21 µM. The inhibition at 10 µM at hERG (KCNH2) is < 50%. The Activity entry in series [14] is “<= 190%”.
Take `CC(C)(C)c1cccc(CNCC(O)CNC(=O)CC(c2ccccc2)c2ccccc2)c1` (racemic): the IC50 in the series “cells [4]” was > 10 µM; in series [5], > 10 µM; in “cells [6]”, > 10 µM; against Cholinesterase [7] it was 0.18 µM; on GABA transporter 4, > 10 µM; at Cholinesterase [2], 0.32 µM.
For the compound `O=C(CC(c1ccccc1)c1ccccc1)NCC(O)CNCc1cccc(C(F)(F)F)c1` (racemic), the IC50 against Cholinesterase [7] turned out to be 0.41 µM; on Cholinesterase [2] it was 1.73 µM.
Consider `C[C@H](NCC(O)CNC(=O)CC(c1ccccc1)c1ccccc1)c1ccccc1` (mixture of isomers), for which the inhibition at Cholinesterase [1] was found to be 34%. This compound gave an IC50 on Cholinesterase [2] of 4.77 µM.
Regarding `O=C(CC(c1ccccc1)c1ccccc1)NCC(O)CNCC1CC1` (racemic), the IC50 in “cells [4]” was > 10 µM; in series [5], > 10 µM; in the series “cells [6]” it was > 10 µM; at GABA transporter 4, > 10 µM; against Cholinesterase [2] it was 3.58 µM. Also, the inhibition at Cholinesterase [1] was determined as 46%.
As for `COc1cccc(CNCC(O)CNC(=O)CC(c2ccccc2)c2ccccc2)c1` (racemic), the figures for the IC50 against Cholinesterase [7] and at Cholinesterase [2] were 0.25 µM and 0.66 µM, respectively.
For `O=C(NCC(O)CNCc1ccccc1)C(c1ccccc1)c1ccccc1` (racemic), the IC50 in “cells [4]” was > 10 µM; in series [5], > 10 µM; in the series “cells [6]” it was > 10 µM; at GABA transporter 4, > 10 µM; on Cholinesterase [2], 2.54 µM. Besides, the inhibition at Cholinesterase [1] is < 20%.
Turning to `CC(C)(C)c1ccc(CNCC(O)CNC(=O)CC(c2ccccc2)c2ccccc2)cc1` (racemic), the results for the IC50 against Cholinesterase [7] and at Cholinesterase [2] were 0.16 µM and 1.94 µM, respectively.
Consider `CC(C)c1cccc(CNCC(O)CNC(=O)CC(c2ccccc2)c2ccccc2)c1` (racemic), for which the IC50 at Cholinesterase [7] is 0.26 µM; against Cholinesterase [2], 0.63 µM.
On to `O=C(NCC(O)CNCC1CC1)C(c1ccccc1)c1ccccc1` (racemic), for which the inhibition in series [3] was 47%; on Cholinesterase [1] it was < 20%.
For the compound `CC(C)(NCC(O)CNC(=O)C(c1ccccc1)c1ccccc1)c1ccccc1` (racemic), the results for the inhibition (in [3]; at Cholinesterase [1]) were 42% and < 20%, respectively.

(Values after ChEMBL document CHEMBL5346882 (Eur J Med Chem, 2023).)
